Assays:
Experiment in all cases: biochemical
Format in all cases: binding
[1] = target: 468 kinases including some pathogenic mutants (Homo sapiens, UniProt O15197); conditions: EPHB6 (Entrez EPHB6), 100 nM; read-out: Percent Control
[2] = target: 468 kinases including some pathogenic mutants (Homo sapiens, UniProt O94806); conditions: PRKD3 (Entrez PRKD3), 100 nM; read-out: Percent Control
[3] = target: 468 kinases including some pathogenic mutants (Homo sapiens, UniProt O95819); conditions: MAP4K4 (Entrez MAP4K4), 100 nM; read-out: Percent Control
[4] = target: 468 kinases including some pathogenic mutants (Homo sapiens, UniProt P06213); conditions: INSR (Entrez INSR), 100 nM; read-out: Percent Control
[5] = target: 468 kinases including some pathogenic mutants (Homo sapiens, UniProt P10721, T670I/V559D); conditions: read-out: Percent Control
[6] = target: 468 kinases including some pathogenic mutants (Homo sapiens, UniProt P10721, V559D); conditions: read-out: Percent Control
[7] = target: 468 kinases including some pathogenic mutants (Homo sapiens, UniProt P15735); conditions: PHKG2 (Entrez PHKG2), 100 nM; read-out: Percent Control
[8] = target: 468 kinases including some pathogenic mutants (Homo sapiens, UniProt P29376); conditions: LTK (Entrez LTK), 100 nM; read-out: Percent Control
[9] = target: 468 kinases including some pathogenic mutants (Homo sapiens, UniProt P35626); conditions: GRK3 (Entrez ADRBK2), 100 nM; read-out: Percent Control
[10] = target: 468 kinases including some pathogenic mutants (Homo sapiens, UniProt P36888, N841I); conditions: read-out: Percent Control
[11] = target: 468 kinases including some pathogenic mutants (Homo sapiens, UniProt P42336, E542K); conditions: read-out: Percent Control
[12] = target: 468 kinases including some pathogenic mutants (Homo sapiens, UniProt P45985); conditions: MEK4 (Entrez MAP2K4), 1000 nM; read-out: Percent Control
[13] = target: 468 kinases including some pathogenic mutants (Homo sapiens, UniProt P49336); conditions: CDK8 (Entrez CDK8), 100 nM; read-out: Percent Control
[14] = target: 468 kinases including some pathogenic mutants (Homo sapiens, UniProt P51955); conditions: NEK2 (Entrez NEK2), 1000 nM; read-out: Percent Control
[15] = target: 468 kinases including some pathogenic mutants (Homo sapiens, UniProt Q00526); conditions: CDK3 (Entrez CDK3), 100 nM; read-out: Percent Control
[16] = target: 468 kinases including some pathogenic mutants (Homo sapiens, UniProt Q13177); conditions: PAK2 (Entrez PAK2), 100 nM; read-out: Percent Control
[17] = target: 468 kinases including some pathogenic mutants (Homo sapiens, UniProt Q13464); conditions: ROCK1 (Entrez ROCK1), 100 nM; read-out: Percent Control
468 kinases including some pathogenic mutants (Homo sapiens, UniProt Q13464), sequence (Q13464 whole entry, change not shown): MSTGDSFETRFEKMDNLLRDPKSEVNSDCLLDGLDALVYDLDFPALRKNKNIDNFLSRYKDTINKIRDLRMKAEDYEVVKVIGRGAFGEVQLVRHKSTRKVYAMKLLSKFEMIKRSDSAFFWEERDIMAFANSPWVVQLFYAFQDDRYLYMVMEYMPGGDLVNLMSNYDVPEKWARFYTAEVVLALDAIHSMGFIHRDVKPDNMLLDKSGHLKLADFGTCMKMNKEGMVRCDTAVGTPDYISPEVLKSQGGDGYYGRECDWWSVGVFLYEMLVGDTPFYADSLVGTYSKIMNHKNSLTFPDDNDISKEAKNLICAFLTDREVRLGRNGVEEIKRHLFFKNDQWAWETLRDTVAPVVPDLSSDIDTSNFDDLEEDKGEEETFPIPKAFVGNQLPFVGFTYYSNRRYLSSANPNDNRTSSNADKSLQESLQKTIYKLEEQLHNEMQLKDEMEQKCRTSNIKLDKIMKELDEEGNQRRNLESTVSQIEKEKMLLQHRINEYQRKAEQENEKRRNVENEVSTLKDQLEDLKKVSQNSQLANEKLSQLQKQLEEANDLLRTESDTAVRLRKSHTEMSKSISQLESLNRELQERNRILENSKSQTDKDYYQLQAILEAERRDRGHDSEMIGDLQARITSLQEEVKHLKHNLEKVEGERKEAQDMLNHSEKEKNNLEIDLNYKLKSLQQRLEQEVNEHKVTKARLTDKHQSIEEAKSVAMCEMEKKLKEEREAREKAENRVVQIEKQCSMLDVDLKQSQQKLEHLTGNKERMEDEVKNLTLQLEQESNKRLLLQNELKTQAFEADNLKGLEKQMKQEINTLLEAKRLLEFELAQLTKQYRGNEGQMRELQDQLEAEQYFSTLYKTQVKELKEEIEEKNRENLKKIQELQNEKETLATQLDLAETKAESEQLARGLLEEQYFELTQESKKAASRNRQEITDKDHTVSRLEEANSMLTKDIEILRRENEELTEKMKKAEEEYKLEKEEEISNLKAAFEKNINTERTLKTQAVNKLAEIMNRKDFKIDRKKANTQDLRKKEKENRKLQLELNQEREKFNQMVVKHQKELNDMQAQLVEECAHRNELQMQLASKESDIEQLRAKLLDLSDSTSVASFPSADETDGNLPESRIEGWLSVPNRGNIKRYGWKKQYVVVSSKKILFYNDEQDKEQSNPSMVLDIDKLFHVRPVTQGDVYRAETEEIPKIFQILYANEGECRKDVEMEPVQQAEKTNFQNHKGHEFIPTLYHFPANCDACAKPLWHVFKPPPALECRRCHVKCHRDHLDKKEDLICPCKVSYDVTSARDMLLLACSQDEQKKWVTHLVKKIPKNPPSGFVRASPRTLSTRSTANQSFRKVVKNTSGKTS

[18] = target: 468 kinases including some pathogenic mutants (Homo sapiens, UniProt Q13555); conditions: CAMK2G (Entrez CAMK2G), 100 nM; read-out: Percent Control
[19] = target: 468 kinases including some pathogenic mutants (Homo sapiens, UniProt Q16288); conditions: TRKC (Entrez NTRK3), 100 nM; read-out: Percent Control
[20] = target: 468 kinases including some pathogenic mutants (Homo sapiens, UniProt Q86V86); conditions: PIM3 (Entrez PIM3), 100 nM; read-out: Percent Control
[21] = target: 468 kinases including some pathogenic mutants (Homo sapiens, UniProt Q8IYT8); conditions: ULK2 (Entrez ULK2), 1000 nM; read-out: Percent Control
[22] = target: 468 kinases including some pathogenic mutants (Homo sapiens, UniProt Q8TDR2); conditions: STK35 (Entrez STK35), 1000 nM; read-out: Percent Control
[23] = target: 468 kinases including some pathogenic mutants (Homo sapiens, UniProt Q96L34); conditions: MARK4 (Entrez MARK4), 1000 nM; read-out: Percent Control
[24] = target: 468 kinases including some pathogenic mutants (Homo sapiens, UniProt Q99755); conditions: PIP5K1A (Entrez PIP5K1A), 100 nM; read-out: Percent Control
468 kinases including some pathogenic mutants (Homo sapiens, UniProt Q99755), sequence (Q99755 whole entry, change not shown): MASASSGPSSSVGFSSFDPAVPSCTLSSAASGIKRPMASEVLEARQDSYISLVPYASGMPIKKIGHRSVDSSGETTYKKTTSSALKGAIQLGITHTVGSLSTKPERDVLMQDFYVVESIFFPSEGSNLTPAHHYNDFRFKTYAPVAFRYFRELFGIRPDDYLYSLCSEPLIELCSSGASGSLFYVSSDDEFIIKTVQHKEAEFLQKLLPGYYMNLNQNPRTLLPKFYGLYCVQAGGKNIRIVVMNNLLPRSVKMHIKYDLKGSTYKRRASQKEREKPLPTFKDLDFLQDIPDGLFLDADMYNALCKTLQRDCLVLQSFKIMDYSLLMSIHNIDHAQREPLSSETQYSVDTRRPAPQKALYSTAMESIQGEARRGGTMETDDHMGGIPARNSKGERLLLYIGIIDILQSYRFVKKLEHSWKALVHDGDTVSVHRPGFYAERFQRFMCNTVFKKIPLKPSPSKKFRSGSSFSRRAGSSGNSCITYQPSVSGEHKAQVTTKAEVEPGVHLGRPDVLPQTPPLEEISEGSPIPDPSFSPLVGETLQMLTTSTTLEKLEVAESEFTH

[25] = target: 468 kinases including some pathogenic mutants (Homo sapiens, UniProt Q9NQU5); conditions: PAK6 (Entrez PAK6), 1000 nM; read-out: Percent Control
[26] = target: 468 kinases including some pathogenic mutants (Homo sapiens, UniProt Q9NY57); conditions: YANK2 (Entrez STK32B), 1000 nM; read-out: Percent Control
[27] = target: 468 kinases including some pathogenic mutants (Homo sapiens, UniProt Q9P286); conditions: PAK7 (Entrez PAK7), 100 nM; read-out: Percent Control
468 kinases including some pathogenic mutants (Homo sapiens, UniProt Q9P286), sequence (Q9P286 whole entry, change not shown): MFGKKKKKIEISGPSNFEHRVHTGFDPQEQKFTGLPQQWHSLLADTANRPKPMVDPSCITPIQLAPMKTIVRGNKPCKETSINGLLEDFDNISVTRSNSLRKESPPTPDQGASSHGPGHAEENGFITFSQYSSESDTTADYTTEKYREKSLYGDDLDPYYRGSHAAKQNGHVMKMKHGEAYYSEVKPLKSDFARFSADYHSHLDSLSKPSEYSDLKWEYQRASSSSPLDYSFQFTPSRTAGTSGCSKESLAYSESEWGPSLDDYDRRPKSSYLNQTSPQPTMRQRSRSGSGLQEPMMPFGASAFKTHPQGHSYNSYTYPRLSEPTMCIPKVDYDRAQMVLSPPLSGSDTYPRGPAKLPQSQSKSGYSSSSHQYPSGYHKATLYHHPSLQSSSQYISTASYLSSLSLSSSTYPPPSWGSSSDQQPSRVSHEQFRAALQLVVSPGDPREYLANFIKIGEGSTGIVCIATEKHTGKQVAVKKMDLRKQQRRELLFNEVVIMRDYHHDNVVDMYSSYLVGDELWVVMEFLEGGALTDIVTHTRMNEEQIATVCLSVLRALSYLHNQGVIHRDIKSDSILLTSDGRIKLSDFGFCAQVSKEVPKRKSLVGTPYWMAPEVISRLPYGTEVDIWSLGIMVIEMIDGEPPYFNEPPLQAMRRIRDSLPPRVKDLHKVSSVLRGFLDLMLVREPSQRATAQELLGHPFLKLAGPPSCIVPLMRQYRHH

[28] = target: 468 kinases including some pathogenic mutants (Homo sapiens, UniProt Q9UKI8); conditions: TLK1 (Entrez TLK1), 1000 nM; read-out: Percent Control
468 kinases including some pathogenic mutants (Homo sapiens, UniProt Q9UKI8), sequence (Q9UKI8 whole entry, change not shown): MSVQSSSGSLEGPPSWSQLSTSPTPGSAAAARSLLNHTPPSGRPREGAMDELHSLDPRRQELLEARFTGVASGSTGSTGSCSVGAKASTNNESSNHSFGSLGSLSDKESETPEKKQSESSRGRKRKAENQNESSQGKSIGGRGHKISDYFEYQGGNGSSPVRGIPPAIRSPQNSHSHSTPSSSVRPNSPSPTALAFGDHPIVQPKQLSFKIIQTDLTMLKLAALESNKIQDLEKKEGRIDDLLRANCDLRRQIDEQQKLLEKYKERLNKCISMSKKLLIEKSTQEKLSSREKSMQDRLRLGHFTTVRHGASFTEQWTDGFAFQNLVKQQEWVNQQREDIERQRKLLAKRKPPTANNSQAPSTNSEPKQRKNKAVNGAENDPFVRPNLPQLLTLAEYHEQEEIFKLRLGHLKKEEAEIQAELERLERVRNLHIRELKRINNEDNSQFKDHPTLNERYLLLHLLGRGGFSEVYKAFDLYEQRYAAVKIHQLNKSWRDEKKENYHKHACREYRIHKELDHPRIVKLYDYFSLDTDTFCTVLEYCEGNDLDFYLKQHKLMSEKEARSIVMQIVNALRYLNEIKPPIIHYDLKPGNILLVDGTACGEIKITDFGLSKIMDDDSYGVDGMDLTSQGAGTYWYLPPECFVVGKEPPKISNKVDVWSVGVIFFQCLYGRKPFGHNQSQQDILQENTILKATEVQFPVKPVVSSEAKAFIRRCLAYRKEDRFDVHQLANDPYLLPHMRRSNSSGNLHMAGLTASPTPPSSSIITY

[29] = target: 468 kinases including some pathogenic mutants (Homo sapiens, UniProt Q9UPE1); conditions: SRPK3 (Entrez SRPK3), 1000 nM; read-out: Percent Control
468 kinases including some pathogenic mutants (Homo sapiens, UniProt Q9UPE1), sequence (Q9UPE1 whole entry, change not shown): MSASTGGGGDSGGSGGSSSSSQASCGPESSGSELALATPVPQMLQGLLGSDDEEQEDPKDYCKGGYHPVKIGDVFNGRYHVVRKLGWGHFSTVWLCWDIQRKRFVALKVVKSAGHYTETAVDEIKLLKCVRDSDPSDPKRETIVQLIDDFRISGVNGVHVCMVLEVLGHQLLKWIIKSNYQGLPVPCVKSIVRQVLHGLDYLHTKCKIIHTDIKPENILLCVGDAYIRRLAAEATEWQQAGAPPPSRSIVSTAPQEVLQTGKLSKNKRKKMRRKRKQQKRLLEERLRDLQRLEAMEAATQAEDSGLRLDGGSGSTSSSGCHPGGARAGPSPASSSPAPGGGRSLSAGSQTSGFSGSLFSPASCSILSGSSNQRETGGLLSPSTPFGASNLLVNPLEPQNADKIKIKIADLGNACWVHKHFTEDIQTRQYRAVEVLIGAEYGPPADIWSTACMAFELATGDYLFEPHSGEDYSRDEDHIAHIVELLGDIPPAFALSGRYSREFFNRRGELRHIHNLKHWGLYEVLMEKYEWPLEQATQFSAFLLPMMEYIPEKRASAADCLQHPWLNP

468 kinases including some pathogenic mutants (Homo sapiens, UniProt O94806), sequence (O94806 whole entry, change not shown): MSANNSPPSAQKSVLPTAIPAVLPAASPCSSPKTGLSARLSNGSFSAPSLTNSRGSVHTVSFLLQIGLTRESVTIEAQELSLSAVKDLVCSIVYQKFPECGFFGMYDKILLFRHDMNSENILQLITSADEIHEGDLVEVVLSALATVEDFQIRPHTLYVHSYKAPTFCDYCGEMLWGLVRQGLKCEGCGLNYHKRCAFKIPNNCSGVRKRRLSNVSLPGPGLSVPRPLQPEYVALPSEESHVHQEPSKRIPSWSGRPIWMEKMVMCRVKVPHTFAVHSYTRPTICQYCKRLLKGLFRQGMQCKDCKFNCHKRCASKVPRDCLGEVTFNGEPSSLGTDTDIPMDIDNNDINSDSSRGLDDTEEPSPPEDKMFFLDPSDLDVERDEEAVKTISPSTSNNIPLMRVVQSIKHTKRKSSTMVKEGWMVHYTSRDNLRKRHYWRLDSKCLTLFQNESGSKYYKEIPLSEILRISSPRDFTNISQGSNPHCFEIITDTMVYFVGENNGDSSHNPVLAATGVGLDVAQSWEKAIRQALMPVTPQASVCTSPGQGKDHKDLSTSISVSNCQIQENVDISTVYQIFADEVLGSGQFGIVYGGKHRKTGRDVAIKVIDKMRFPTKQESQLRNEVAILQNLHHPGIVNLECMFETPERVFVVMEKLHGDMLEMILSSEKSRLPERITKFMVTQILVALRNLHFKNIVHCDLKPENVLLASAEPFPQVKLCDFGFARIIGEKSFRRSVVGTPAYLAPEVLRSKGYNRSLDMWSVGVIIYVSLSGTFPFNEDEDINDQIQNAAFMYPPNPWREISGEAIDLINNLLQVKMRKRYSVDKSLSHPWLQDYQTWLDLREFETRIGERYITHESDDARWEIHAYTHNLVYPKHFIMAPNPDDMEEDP

Structure (SMILES): CN1C(=O)[C@@H](N2CCc3c(nn(Cc4ccccc4)c3C(N)=O)C2=O)COc2cc(Cl)ccc21 [Compound 10, (S)-2-benzyl-6-(8-chloro-5-methyl-4-oxo-2,3,4,5-tetrahydrobenzo[b][1,4]oxazepin-3-yl)-7-oxo-4,5,6,7-tetrahydro-2H-pyrazolo[3,4-c]pyridine-3-carboxamide]
- remaining activity at 0.1 µM [1]: 91%
- remaining activity at 0.1 µM [2]: 76%
- remaining activity at 0.1 µM [3]: 99%
- remaining activity at 0.1 µM [4]: 100%
- remaining activity at 1 µM [5]: 100%
- remaining activity at 0.1 µM [6]: 69%
- remaining activity at 0.1 µM [7]: 62%
- remaining activity at 0.1 µM [8]: 54%
- remaining activity at 0.1 µM [9]: 98%
- remaining activity at 0.1 µM [10]: 72%
- remaining activity at 0.1 µM [11]: 62%
- remaining activity at 1 µM [12]: 100%
- remaining activity at 0.1 µM [13]: 100%
- remaining activity at 1 µM [14]: 100%
- remaining activity at 0.1 µM [15]: 80%
- remaining activity at 0.1 µM [16]: 88%
- remaining activity at 0.1 µM [17]: 76%
- remaining activity at 0.1 µM [18]: 78%
- remaining activity at 0.1 µM [19]: 79%
- remaining activity at 0.1 µM [20]: 87%
- remaining activity at 1 µM [21]: 100%
- remaining activity at 1 µM [22]: 100%
- remaining activity at 1 µM [23]: 100%
- remaining activity at 0.1 µM [24]: 100%
- remaining activity at 1 µM [25]: 100%
- remaining activity at 1 µM [26]: 100%
- remaining activity at 0.1 µM [27]: 80%
- remaining activity at 1 µM [28]: 100%
- remaining activity at 1 µM [29]: 100%

Reference: PMC12090182, “Repurposing of the RIPK1-Selective Benzo[1,4]oxazepin-4-one Scaffold for the Development of a Type III LIMK1/2 Inhibitor” (ACS Chemical Biology, 2025)
